{"source": "ChEMBL document CHEMBL1150523", "about": "“Synthesis of 1-(2-Deoxy-2-C-fluoromethyl--D-arabinofuranosyl)cytosine as a potential antineoplastic agent” (Bioorg Med Chem Lett, 1994)", "format_in_all_cases": "functional, cell-based", "key": {"A-375": {"test_system": "A-375", "test": "Inhibitory concentration against melanoma A-375 cell line for cytotoxicity was determined", "conditions": "Homo sapiens"}, "[1]": {"test_system": "KATO III stomach cancer cell line", "test": "Inhibitory concentration against stomach adenocarcinoma KATO-III cell line for cytotoxicity was determined", "conditions": "Homo sapiens"}, "KB": {"test_system": "KB", "test": "Inhibitory concentration against solid tumor KB cell line for cytotoxicity was determined", "conditions": "Homo sapiens"}, "PC-8": {"test_system": "PC-8", "test": "Inhibitory concentration against lung adenocarcinoma PC-8 cell line for cytotoxicity was determined", "conditions": "Homo sapiens"}, "COLO 320DM": {"test_system": "COLO 320DM", "test": "Inhibitory concentration against colon adenocarcinoma COLO 320DM cell line for cytotoxicity was determined", "conditions": "Homo sapiens"}, "CCRF-HSB-2": {"test_system": "CCRF-HSB-2", "test": "Inhibitory concentration against human T-cell line CCRF-HSB-2 for cytotoxicity was determined"}}, "data": [{"smiles": "Nc1ccn([C@@H]2O[C@H](CO)C(O)C2CF)c(=O)n1", "note": "(single isomer, unassigned)", "values": [{"measurement": "IC50", "setting": "A-375", "value": 1.6, "unit": "µg/mL"}, {"measurement": "IC50", "setting": "[1]", "value": 11, "unit": "µg/mL"}, {"measurement": "IC50", "setting": "KB", "value": 4.47, "unit": "µg/mL"}, {"measurement": "IC50", "setting": "PC-8", "value": 26, "unit": "µg/mL"}, {"measurement": "IC50", "setting": "COLO 320DM", "value": 1.6, "unit": "µg/mL"}, {"measurement": "IC50", "setting": "CCRF-HSB-2", "value": 0.03, "unit": "µg/mL"}]}]}
